Values joined by “and” are separate entries in the source; they are usually repeats but may differ in a detail not shown here. Equal entries are not always repeated. Structures can show the parent of a compound that is named as a salt.

For orientation: IC50 means the concentration needed to halve the response being measured. Higher therefore signals weaker potency in that assay. What is called Ki is a dissociation constant, usually derived from enzyme kinetics or from competition with a known ligand. A higher Ki goes with weaker binding.

One experiment deals with NMDAR. The note with it: rat cortical membranes.
The target in experiment [1] is T1, NR1-2B NMDAR (Homo sapiens, UniProt Q05586+Q13224). The experiment can be described thus: Whole-cell manual patch-clamp REL-1017 CRC in 1 mM MgCl2. The note with it: 1 mM MgCl2, 1 μM L-glutamate, −60 mV. Background: In patch-clamp work, channel activity is measured electrically.
Experiment [2] has as its target T2, NR1-2C NMDAR (Homo sapiens, UniProt Q05586+Q14957). The experiment can be described thus: Whole-cell manual patch-clamp: current block, onset/offset kinetics and trapping, no Mg2+. The note with it: test item 10 µM, −70 mV.
The target of experiment [3] is T3, NR1-2A NMDAR (Homo sapiens, UniProt Q05586+Q12879). The experiment can be described thus: Whole-cell manual patch-clamp REL-1017 CRC in 1 mM MgCl2. The note with it: 1 mM MgCl2, 1 μM L-glutamate, −60 mV.
T3 sequence (Q12879 23-1464, other chains not shown): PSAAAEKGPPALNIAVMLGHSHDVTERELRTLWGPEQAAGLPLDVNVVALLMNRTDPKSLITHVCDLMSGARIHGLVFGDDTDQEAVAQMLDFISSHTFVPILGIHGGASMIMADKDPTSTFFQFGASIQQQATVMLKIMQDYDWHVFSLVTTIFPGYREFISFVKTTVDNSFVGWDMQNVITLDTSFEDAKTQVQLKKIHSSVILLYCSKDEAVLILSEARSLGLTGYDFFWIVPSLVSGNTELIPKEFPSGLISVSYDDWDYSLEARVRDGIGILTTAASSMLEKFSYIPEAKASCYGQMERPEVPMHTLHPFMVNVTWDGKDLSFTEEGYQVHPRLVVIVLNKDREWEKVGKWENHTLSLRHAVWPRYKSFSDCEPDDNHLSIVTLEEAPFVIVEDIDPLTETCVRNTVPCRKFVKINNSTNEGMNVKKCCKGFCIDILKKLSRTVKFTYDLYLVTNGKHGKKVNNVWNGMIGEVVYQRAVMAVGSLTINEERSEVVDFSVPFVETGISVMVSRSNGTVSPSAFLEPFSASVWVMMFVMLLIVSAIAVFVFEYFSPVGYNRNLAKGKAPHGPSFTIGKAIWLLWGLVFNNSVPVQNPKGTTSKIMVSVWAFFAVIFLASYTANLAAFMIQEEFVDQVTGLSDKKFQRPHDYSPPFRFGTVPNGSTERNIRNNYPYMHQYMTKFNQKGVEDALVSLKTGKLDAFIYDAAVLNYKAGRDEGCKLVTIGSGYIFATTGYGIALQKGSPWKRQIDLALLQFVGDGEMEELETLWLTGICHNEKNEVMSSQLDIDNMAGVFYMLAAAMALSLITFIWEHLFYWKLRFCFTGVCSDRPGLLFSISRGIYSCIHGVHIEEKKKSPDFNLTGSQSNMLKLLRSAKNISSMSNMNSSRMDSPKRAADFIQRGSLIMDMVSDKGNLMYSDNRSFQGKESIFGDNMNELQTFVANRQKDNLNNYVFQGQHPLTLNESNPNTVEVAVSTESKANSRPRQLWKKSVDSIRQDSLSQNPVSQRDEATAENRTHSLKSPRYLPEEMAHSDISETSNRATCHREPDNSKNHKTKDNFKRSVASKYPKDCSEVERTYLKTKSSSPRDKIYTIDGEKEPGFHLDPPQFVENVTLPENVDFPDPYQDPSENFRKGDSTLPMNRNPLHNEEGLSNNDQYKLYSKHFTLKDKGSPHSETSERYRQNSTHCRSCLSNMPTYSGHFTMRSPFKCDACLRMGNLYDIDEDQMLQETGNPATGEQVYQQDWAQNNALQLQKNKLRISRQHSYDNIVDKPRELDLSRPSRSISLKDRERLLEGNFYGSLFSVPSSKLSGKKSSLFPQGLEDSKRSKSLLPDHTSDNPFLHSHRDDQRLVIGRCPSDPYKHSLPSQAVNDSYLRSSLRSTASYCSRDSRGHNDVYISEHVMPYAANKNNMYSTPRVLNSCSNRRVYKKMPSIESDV
For experiment [4], the target named is T3, NR1-2A NMDAR. The experiment can be described thus: Whole-cell automated patch-clamp (QPatch) in 1 mM Mg2+. In kind it is cell-based. The arrangement: host or cells: CHO (CHO-hNR1-h2A), tetracycline-induced expression. To be noted: 1 mM Mg2+. As for the experimental part:
(§1) Data were obtained in automated patch-clamp platform. […] Statistical results of one-way analysis of variance (ANOVA) followed by Tukey’s multiple comparisons test also reported p < 0.05 (*), p < 0.01 (**), p < 0.001 (***), and p < 0.0001 (****). Glu is glutamate.
(§2) For QPatch experiments, cells were grown in T-flasks first at 37 °C, 5% CO2 for 3 to 4 h, then at 30 °C, 5% CO2 for 18 to 24 h in DMEM/F12 medium with added 500 μM ketamine and 10 μg/mL tetracycline (except for NR1-2B-CHO cells) without additional antibiotics. Cells were manually detached from the culture dish and automatically dispensed in QPatch wells with extracellular solution in the presence of 1 mM Mg^2+ and 500 μM ketamine.
(§3) Holding potential was −80 mV, and voltage protocol included a depolarizing 2-s step pulse to +60 mV to check the quality of the seal and cell NMDAR expression level, followed by a 2-s ramp-up to holding potential.

For experiment [5], the target named is T2, NR1-2C NMDAR. The experiment can be described thus: Whole-cell manual patch-clamp REL-1017 CRC in 1 mM MgCl2. The note with it: 1 mM MgCl2, 1 μM L-glutamate, −60 mV.
For experiment [6], the target named is T1, NR1-2B NMDAR. The experiment can be described thus: Whole-cell automated patch-clamp (QPatch) in 1 mM Mg2+. In kind it is cell-based. To be noted: 1 mM Mg2+. The arrangement: host or cells: CHO (CHO-hNR1-h2B), constitutive expression. As for the experimental part: as §1, §2, §3
Experiment [7] concerns the target T4, NR1-2D NMDAR (Homo sapiens, UniProt O15399+Q05586). The experiment is described as above. The arrangement: host or cells: CHO (CHO-hN1-h2D), tetracycline-induced expression. The note with it: 1 mM Mg2+, −30 mV to −80 mV. It is filed as cell-based. As for the experimental part:
as §1, §2, §3

The target of experiment [8] is T4, NR1-2D NMDAR. Kind of experiment: Whole-cell manual patch-clamp REL-1017 CRC in 1 mM MgCl2. To be noted: 1 mM MgCl2, 1 μM L-glutamate, −60 mV.
Where [9] appears, read: 10 μM REL-1017, 1 μM L-glutamate.
Where [10] appears, read: 10 μM REL-1017, 10 μM L-glutamate.

T2 sequence (Q14957 20-1233, other chains not shown): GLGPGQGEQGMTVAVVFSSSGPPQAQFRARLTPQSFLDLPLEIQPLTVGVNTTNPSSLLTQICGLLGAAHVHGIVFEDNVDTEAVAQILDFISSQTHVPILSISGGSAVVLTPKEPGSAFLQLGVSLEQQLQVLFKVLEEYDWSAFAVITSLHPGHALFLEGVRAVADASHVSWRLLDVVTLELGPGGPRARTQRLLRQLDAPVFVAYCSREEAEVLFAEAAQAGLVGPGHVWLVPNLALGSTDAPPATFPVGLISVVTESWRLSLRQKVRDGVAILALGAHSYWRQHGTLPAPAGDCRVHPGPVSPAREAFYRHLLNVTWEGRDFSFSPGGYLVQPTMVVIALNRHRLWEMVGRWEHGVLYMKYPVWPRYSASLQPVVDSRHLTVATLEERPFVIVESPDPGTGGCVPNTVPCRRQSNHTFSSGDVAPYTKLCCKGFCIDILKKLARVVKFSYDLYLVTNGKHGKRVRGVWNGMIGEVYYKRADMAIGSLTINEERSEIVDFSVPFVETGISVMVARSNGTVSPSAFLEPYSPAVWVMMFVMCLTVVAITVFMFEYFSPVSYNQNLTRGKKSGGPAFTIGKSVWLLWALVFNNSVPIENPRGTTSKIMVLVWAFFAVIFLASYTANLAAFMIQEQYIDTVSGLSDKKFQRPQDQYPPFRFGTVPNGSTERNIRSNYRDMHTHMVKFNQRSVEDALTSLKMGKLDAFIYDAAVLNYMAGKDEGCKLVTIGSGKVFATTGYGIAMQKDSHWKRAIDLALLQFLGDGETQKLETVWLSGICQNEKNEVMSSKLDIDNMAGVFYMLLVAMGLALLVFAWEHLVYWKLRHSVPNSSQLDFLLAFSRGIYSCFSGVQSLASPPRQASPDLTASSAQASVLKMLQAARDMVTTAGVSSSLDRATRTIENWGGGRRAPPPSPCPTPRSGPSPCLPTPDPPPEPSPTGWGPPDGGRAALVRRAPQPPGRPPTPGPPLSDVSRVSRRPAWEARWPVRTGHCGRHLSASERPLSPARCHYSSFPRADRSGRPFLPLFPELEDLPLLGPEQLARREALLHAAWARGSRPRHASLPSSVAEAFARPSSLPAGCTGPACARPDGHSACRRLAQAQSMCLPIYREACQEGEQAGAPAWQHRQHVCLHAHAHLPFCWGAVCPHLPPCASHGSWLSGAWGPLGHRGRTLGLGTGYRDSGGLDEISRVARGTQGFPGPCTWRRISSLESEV
T4 sequence (O15399 28-1336, other chains not shown): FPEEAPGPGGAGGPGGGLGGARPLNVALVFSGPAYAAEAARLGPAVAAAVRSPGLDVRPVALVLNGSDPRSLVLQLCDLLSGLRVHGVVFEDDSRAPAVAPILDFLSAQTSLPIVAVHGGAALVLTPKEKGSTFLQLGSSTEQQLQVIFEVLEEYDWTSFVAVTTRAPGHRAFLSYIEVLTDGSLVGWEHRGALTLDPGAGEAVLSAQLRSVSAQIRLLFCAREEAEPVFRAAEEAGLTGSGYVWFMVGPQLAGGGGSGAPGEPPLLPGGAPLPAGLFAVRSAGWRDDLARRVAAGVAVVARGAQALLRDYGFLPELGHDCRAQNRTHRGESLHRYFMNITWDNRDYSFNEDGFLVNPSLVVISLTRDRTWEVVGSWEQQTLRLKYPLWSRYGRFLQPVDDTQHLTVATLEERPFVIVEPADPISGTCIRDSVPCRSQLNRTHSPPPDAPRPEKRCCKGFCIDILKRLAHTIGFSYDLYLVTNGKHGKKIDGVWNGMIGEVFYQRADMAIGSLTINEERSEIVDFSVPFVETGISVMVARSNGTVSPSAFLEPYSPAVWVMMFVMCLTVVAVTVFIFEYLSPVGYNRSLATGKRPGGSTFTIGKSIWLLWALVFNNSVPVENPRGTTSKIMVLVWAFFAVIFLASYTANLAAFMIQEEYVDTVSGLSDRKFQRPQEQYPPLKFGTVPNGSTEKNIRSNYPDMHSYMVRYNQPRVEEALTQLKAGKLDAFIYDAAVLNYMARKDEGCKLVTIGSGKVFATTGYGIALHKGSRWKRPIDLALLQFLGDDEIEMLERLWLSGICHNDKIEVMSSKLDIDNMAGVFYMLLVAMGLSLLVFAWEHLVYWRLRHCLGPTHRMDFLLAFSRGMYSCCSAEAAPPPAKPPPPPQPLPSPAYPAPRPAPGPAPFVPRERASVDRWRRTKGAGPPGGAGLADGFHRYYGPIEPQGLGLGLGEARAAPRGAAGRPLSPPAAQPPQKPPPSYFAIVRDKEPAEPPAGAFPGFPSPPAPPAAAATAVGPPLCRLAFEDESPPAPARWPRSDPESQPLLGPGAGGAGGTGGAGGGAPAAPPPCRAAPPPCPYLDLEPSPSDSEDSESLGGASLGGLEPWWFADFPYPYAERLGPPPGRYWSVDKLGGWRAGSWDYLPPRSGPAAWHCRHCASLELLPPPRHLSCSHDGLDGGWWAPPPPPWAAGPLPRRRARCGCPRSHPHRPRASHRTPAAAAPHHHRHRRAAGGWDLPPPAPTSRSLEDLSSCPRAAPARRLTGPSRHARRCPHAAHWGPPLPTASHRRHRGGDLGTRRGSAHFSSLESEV

Turning to `COc1ccc2c(c1)[C@]13CCCC[C@@H]1[C@H](C2)N(C)CC3` [Dextromethorphan, dextromethorphan], in the experiment on NMDAR ([3H]TCP 4 nM), 2060 nM corresponded to half-maximal inhibition (IC50). The molecule further had a Ki at NMDAR ([3H]TCP, Cheng and Prusoff) of 1400 nM.
As for `CCC(=O)C(C[C@H](C)N(C)C)(c1ccccc1)c1ccccc1` [REL-1017, dextromethadone HCl], the “Hill Slope” value on NR1-2B NMDAR [1] was determined as 1.17; at NR1-2A NMDAR [3], 1.06; at NR1-2C NMDAR [5], 1.49; on NR1-2D NMDAR [8], 1.42. The “I1 (% Current) at end of test item addition, normalized to I0” value at NR1-2C NMDAR [2] (30 s co-application) amounted to 20.4%. Further, on NR1-2C NMDAR [2] (50 s after removal), the “I2 (% Current) at end of test item removal, normalized to I0” value was 98.5%. Besides, at NR1-2C NMDAR [2] (after wash with glycine alone), the “BR (residual block)” value is given as 71.8 ± 1.1. Further, the “B (initial block)” value at NR1-2C NMDAR [2] was 84 ± 1% and 83.8 ± 1.2 %. Besides, the “BT (trapped block, BR/B × 100)” value at NR1-2C NMDAR [2] is on record as 85.9 ± 1.9%. Besides, the Tau off on NR1-2C NMDAR [2] is reported as 17.7 ± 1.0 s. Further, the Tau on at NR1-2C NMDAR [2] was 4.7 ± 0.21 s. The “effect on L-glutamate-elicited current” value on NR1-2A NMDAR [4] (setting [9]) was “inactive”; on NR1-2A NMDAR [4] (10 μM REL-1017, 10 μM L-glutamate, −30 mV to −80 mV), “significantly reduced”; at NR1-2B NMDAR [6] (setting [9]) it was “inactive”; on NR1-2B NMDAR [6] (setting [10]), “significantly reduced the elicited current only at −30 mV, −40 mV, and −50 mV”; at NR1-2D NMDAR [7] (setting [9]), “significantly reduced”; at NR1-2D NMDAR [7] (setting [10]), “significantly reduced”.
